Test results as given in patent US8563522B2, “Method of maintaining and/or attenuating a decline in quality of life” (The IAMS Company, priority 1997, dated 2013).

How the values were obtained:
hexokinase = settings: cited from earlier work
isolated rat hepatocytes = settings: cited from earlier work
glucose metabolism = settings: rodents, long-term, lower dose; cited from earlier work
[1] = test system: utilization of glucose as an energy source; settings: cited from earlier work
[2] = injected into a rat; cited from earlier work
[3] = Mice fed a composition containing mannoheptulose; assay type: in vivo
[4] = Pharmacokinetics, once daily mannoheptulose in composition fed to adult Labrador Retrievers; assay type: in vivo, Labrador Retriever dogs
Protocol: The pharmacokinetics of mannoheptulose can be determined in six adult, male Labrador Retriever dogs fed a nutritionally-balanced composition providing mannoheptulose at levels of 0, 1 or 2 mg/kg of body weight of the dog. Mannoheptulose is provided as an enriched source of avocado extract in the 1 and 2 mg/kg diets. The mean age of the dogs is 4.2 years and the age ranges from 3.3 to 6.1 years. The average body weight of all dogs is 33 kg and the body weight ranges from 28 to 36 kg. Dogs are adapted for 14 days to a nutritionally-balanced control composition (Eukanuba Senior Maintenance Formula) containing no mannoheptulose, avocado extract or avocado meal (0 mg/kg mannoheptulose). The two compositions containing mannoheptulose are the nutritionally-balanced control composition formulated with avocado extract to provide a mannoheptulose dose of 1 or 2 mg/kg of body weight when fed to a dog. […] Pharmacokinetics of mannoheptulose following once daily administration of mannoheptulose in a nutritionally-balanced composition is determined by collecting serial blood samples (3 mL) from each dog on day 9 using a Vacutainer blood collection system and jugular venipuncture. […] Plasma mannoheptulose concentrations are measured using high-performance liquid chromatography tandem mass spectrometry as described herein below.
A one-compartment model is used to calculate mannoheptulose pharmacokinetics based on plasma mannoheptulose levels following once daily oral administration of mannoheptulose in a nutritionally-balanced composition (PV(t)). […] Area under each plasma mannoheptulose curve is determined using a one-way, repeated measures analysis of variance (GraphPad Prism version 4.00 for Windows).
High performance liquid chromatography tandem mass spectrometry (HPLC/MS/MS) is utilized to determine the amount of mannoheptulose present in the plasma of adult dogs. […] Detection and quantitation is by mass spectrometry (MS) operating under multiple reaction monitoring MS/MS conditions. Concentrations of D-mannoheptulose in dog plasma can be quantitated from approximately 20 to 5000 ng/mL. […]

[5] = doses of 10 grams, humans, orally; cited from earlier work
[6] = injected, rats, cited from earlier work
[7] = Pharmacokinetics, twice daily mannoheptulose in composition fed to older Labrador Retrievers; assay type: in vivo, Labrador Retriever dogs
Protocol: The pharmacokinetics of mannoheptulose can be determined in ten adult, female Labrador Retriever dogs fed a nutritionally-balanced composition providing mannoheptulose at levels of 0 or 2 mg/kg of body weight of the dog. Mannoheptulose is provided as avocado extract in the 2 mg/kg diet. The mean age of the dogs is 7.1 years and the age ranges from 5.3 to 8.4 years. Dogs are age-matched across the two composition groups. The average body weight of all dogs is 29 kg and ranges from 25 to 35 kg. The 0 mg/kg composition is fed as a nutritionally-balanced control composition (Eukanuba Senior Maintenance Formula) and it contains no mannoheptulose, avocado extract or avocado meal. The 2 mg/kg composition is the nutritionally-balanced control composition formulated to contain avocado extract to provide mannoheptulose at a dose of 2 mg/kg of body weight of the dog. The amount of composition offered to the dogs is based on feeding guidelines for the control composition and the target weight range and body condition of the dogs. Dogs are fed one-half their daily allotment of composition at 0730 and the remaining half at 1330. Dogs 1, 2, 3, 4 and 5 are fed the composition containing 2 mg/kg mannoheptulose and dogs 6, 7, 8, 9 and 10 are fed the composition containing 0 mg/kg mannoheptulose. Pharmacokinetics of mannoheptulose following twice daily administration of mannoheptulose in a nutritionally-balanced composition is determined by collecting serial blood samples (3 mL) from each dog using a Vacutainer blood collection system and jugular venipuncture. […] Plasma mannoheptulose concentrations are measured using high-performance liquid chromatography tandem mass spectrometry as described herein below.
A one-compartment model is used to calculate mannoheptulose pharmacokinetics based on plasma mannoheptulose levels following twice daily oral administration of mannoheptulose in a nutritionally-balanced composition (PV(t)). The model is: PV(t)=dose/(a·BW)e^−kt where: a=mannoheptulose pool size (dose/(enrichment at t0)), BW=body weight, k=rate constant of elimination (ln Et−ln E0)/−t, and t=time.
High performance liquid chromatography tandem mass spectrometry (HPLC/MS/MS) is utilized to determine the amount of mannoheptulose present in the plasma of adult dogs. […] Detection and quantitation is by mass spectrometry (MS) operating under multiple reaction monitoring MS/MS conditions. Concentrations of D-mannoheptulose in dog plasma can be quantitated from approximately 20 to 5000 ng/mL. […] Specimen concentrations are determined by back-calculation using a weighted (1/x^2) linear regression of a calibration curve generated from prepared D-mannoheptulose calibration standards. […]

O=P(O)(O)OC[C@H]1OC[C@H](O)[C@@H](O)[C@@H]1O [1,5-anhydro-D-glucitol-6-phosphate]
inhibition of hexokinase (hexokinase): allosteric (non-competitive) inhibitor

OC[C@H]1O[C@H](CO)[C@@H](O)[C@@H]1O [2,5-Anhydro-D-mannitol, 2,5-anhydro-D-mannitol]
effect on glucose formation and utilization (isolated rat hepatocytes): interfere in glucose formation and utilization

O=CC[C@@H](O)[C@H](O)[C@H](O)CO [2-deoxy-D-glucose]
metabolic hallmarks of caloric restriction (glucose metabolism): reduced body temperature, weight loss, and lower fasting insulin levels

CO[C@@H]([C@H](O)[C@H](O)CO)[C@@H](O)C=O [3-O-methylglucose]
responses relative to 2-deoxyglucose ([1]; administration in rats): about seven times weaker
metabolism ([1]; in contrast with 2-deoxy-D-glucose): not metabolized

O=C[C@H](O)[C@@H](O)[C@H](O)[C@H](S)CO [5-Thioglucose, 5-thio-D-glucose]
injected 5-thioglucose excreted unchanged in urine [2]: 97%

O=C(CO)[C@@H](O)[C@@H](O)[C@H](O)[C@H](O)CO [mannoheptulose]
body weight [3]: slightly reduced body weight
plasma insulin levels [3]: reduced plasma insulin levels
plasma level response to dietary mannoheptulose level ([4]; 0, 1, 2 mg/kg): dose-dependent
time of return of plasma mannoheptulose to non-detectable levels ([4]; after consumption of the single daily meal): ≤ 24 h
plasma kinetics order ([4]; once daily oral, 1 or 2 mg/kg): first order kinetics
safety of oral dosing [5]: safely administered
remained in the body ([6]; a day after the injection): 5%
excreted unchanged [6]: 66%
metabolized [6]: 29%
time to second peak in plasma mannoheptulose ([7]; after feeding the afternoon meal, 2 mg/kg in two equal meals): 4 h
time to peak plasma mannoheptulose level ([7]; after initial (morning) feeding, 2 mg/kg in two equal meals): 4 h
plasma kinetics order ([7]; twice daily oral, 2 mg/kg): first order kinetics
half-life ([7]; twice daily, 2 mg/kg, after the afternoon meal): 5.63 h
